Patent publication US20110318380A1, “MHC Multimers in Cancer Vaccines and Immune Monitoring” (priority 2008, published 2011)
Like-named read-outs stand apart in the source and are kept apart here. One block for each substance: values may come before it.

Tests used:
[1] = tested on: T2 cells; settings: cited from earlier work
[2] = biological target: purified folded MHC-complex (Example 37)
[3] = tested on: PBL from a breast cancer patient; settings: with vs without peptide; in doublets; cited from earlier work
[4] = biological target: Bcl-X(L)173-182 specific CD8 T cells in PBL from a breast cancer patient; test: flow cytometry of PBL ex vivo, APC dextramer with 7-AAD, CD3 and CD8; compared with an HIV specific dextramer as negative control

Substance: GLQHWVPEL (Irrelevant peptide) [BA4697-105, irrelevant peptide loaded on T2 target cells, reference compound]
lysis of peptide-pulsed T2 cells ([1]; Clone 8, 9, 10, 11, and 12): without killing

Substance: W6/32 mouse-anti-HLA-ABC antibody (Dako M0736)
OD450 ratio to the negative control β2m [2]: > 6 fold

Substance: YLNDHLEPWI (listed as Homo Sapiens)
lysis of peptide-pulsed T2 cells ([1]; Clone 7, 13, 15, 17, and 18): did not show specific lysis
lysis of peptide-pulsed T2 cells ([1]; Clone 8, 9, 10, 11, and 12): effectively lysed
cell lysis of T2 cells pulsed with different concentrations of peptide ([1]; clone 9, E:T ratio 1:1): significant even at low concentrations
cell lysis of peptide-pulsed T2 cells ([1]; clone 9, specific vs irrelevant peptide, three E:T ratios): necessary to get killing of the target cell
number of spots (IFN-gamma producing T-cells) [3]: clearly shows the presence of BclX(L) specific T-cells

level of dextramer positive CD-8 cells in the patient sample [4]: 0.03%
Substance: dextramer complex HLA-A2/Bcl-X(L)173-182-APC (from UniProt P61769 21-119) (peptide-MHC)
